Measured values published in PubChem BioAssay (NCI).
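Abbreviation: GI50, concentration required for 50% inhibition of growth. Definition used: TGI = concentration required for complete inhibition of growth.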

Columns and labels:
Experiment in all cases: growth of human tumour cells (NCI), 384-well format
A498 renal = system: A498 renal
BT-549 breast = system: BT-549 breast
HL-60(TB) leukemia = system: HL-60(TB) leukemia
HS 578T breast = system: HS 578T breast
MDA-MB-231 breast = system: MDA-MB-231 breast
NCI-H23 lung = system: NCI-H23 lung
NCI-H322M lung = system: NCI-H322M lung
OVCAR-8 ovarian = system: OVCAR-8 ovarian
SF-539 CNS = system: SF-539 CNS
SN12C renal = system: SN12C renal
SNB-19 CNS = system: SNB-19 CNS
UACC-257 melanoma = system: UACC-257 melanoma
UACC-62 melanoma = system: UACC-62 melanoma

Row | Compound | GI50 (A498 renal) | TGI (A498 renal) | GI50 (BT-549 breast) | TGI (BT-549 breast) | GI50 (HL-60(TB) leukemia) | TGI (HL-60(TB) leukemia) | GI50 (HS 578T breast) | TGI (HS 578T breast) | GI50 (MDA-MB-231 breast) | TGI (MDA-MB-231 breast) | GI50 (NCI-H23 lung) | TGI (NCI-H23 lung) | GI50 (NCI-H322M lung) | TGI (NCI-H322M lung) | GI50 (OVCAR-8 ovarian) | TGI (OVCAR-8 ovarian) | GI50 (SF-539 CNS) | TGI (SF-539 CNS) | GI50 (SN12C renal) | TGI (SN12C renal) | also measured
1 | CC1=C(c2cccc(O)c2)[C@H](c2ccc(OCCN3CC(CF)C3)cc2)Oc2ccc(O)cc21 | 2.28 µM | 6.48 µM | 3.24 µM | 12.6 µM | 1.86 µM | 3.29 µM | 2.48 µM | 12 µM | 6.48 µM | 19.2 µM | 7.02 µM | 19.6 µM | 6.69 µM | 19.6 µM | 10.1 µM | 21.8 µM | 2.03 µM | 4.26 µM | 7.94 µM | 20.6 µM | GI50 (SNB-19 CNS): 10.5 µM; TGI (SNB-19 CNS): 22.3 µM; GI50 (UACC-257 melanoma): 1.64 µM; TGI (UACC-257 melanoma): 3.01 µM; GI50 (UACC-62 melanoma): 4.7 µM; TGI (UACC-62 melanoma): 16.4 µM
2 | Cc1cc([N+](=O)[O-])c(NS(=O)(=O)c2cccc(C(=O)O)c2)cc1-c1cccnc1 | > 100 µM | > 100 µM | > 100 µM | > 100 µM | > 100 µM | > 100 µM | > 100 µM | > 100 µM | > 100 µM | > 100 µM | > 100 µM | > 100 µM | > 100 µM | > 100 µM | > 100 µM | > 100 µM | > 100 µM | > 100 µM | > 100 µM | > 100 µM | GI50 (SNB-19 CNS): > 100 µM; TGI (SNB-19 CNS): > 100 µM; GI50 (UACC-257 melanoma): > 100 µM; TGI (UACC-257 melanoma): > 100 µM; GI50 (UACC-62 melanoma): > 100 µM; TGI (UACC-62 melanoma): > 100 µM
